Assay results taken from PubChem BioAssay (NCI).
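Cells were grown in 96-well plates and exposed to each compound for 48 hours at five concentrations; endpoints were interpolated linearly between bracketing concentrations, or set to the highest concentration if not reached. TGI: total growth inhibition.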

Columns and labels:
Assay in all cases: NCI-60 cell line screen, 48 h
786-0 renal = system: 786-0 renal
A498 renal = system: A498 renal
A549 NSCLC = system: A549 NSCLC
ACHN renal = system: ACHN renal
CAKI-1 renal = system: CAKI-1 renal
COLO 205 colon = system: COLO 205 colon
DU-145 prostate = system: DU-145 prostate
EKVX NSCLC = system: EKVX NSCLC
HCC-2998 colon = system: HCC-2998 colon
HCT-116 colon = system: HCT-116 colon
HCT-15 colon = system: HCT-15 colon
HL-60(TB) leukemia = system: HL-60(TB) leukemia
HOP-62 NSCLC = system: HOP-62 NSCLC
HOP-92 NSCLC = system: HOP-92 NSCLC
HS 578T breast = system: HS 578T breast
HT29 colon = system: HT29 colon
IGROV1 ovarian = system: IGROV1 ovarian
K-562 leukemia = system: K-562 leukemia
KM12 colon = system: KM12 colon
LOX IMVI melanoma = system: LOX IMVI melanoma
M14 melanoma = system: M14 melanoma
MALME-3M melanoma = system: MALME-3M melanoma
MCF7 breast = system: MCF7 breast
MDA-MB-435 = system: MDA-MB-435
MDA-N = system: MDA-N
NCI-H226 lung = system: NCI-H226 lung
NCI-H23 lung = system: NCI-H23 lung
NCI-H460 lung = system: NCI-H460 lung
NCI-H522 lung = system: NCI-H522 lung
NCI/ADR-RES ovarian = system: NCI/ADR-RES ovarian
OVCAR-3 ovarian = system: OVCAR-3 ovarian
OVCAR-4 ovarian = system: OVCAR-4 ovarian
OVCAR-5 ovarian = system: OVCAR-5 ovarian
OVCAR-8 ovarian = system: OVCAR-8 ovarian
PC-3 prostate = system: PC-3 prostate
RXF 393 renal = system: RXF 393 renal
SF-268 CNS = system: SF-268 CNS
SF-295 CNS = system: SF-295 CNS
SF-539 CNS = system: SF-539 CNS
SK-MEL-2 melanoma = system: SK-MEL-2 melanoma
SK-MEL-28 melanoma = system: SK-MEL-28 melanoma
SK-MEL-5 melanoma = system: SK-MEL-5 melanoma
SK-OV-3 ovarian = system: SK-OV-3 ovarian
SN12C renal = system: SN12C renal
SNB-19 CNS = system: SNB-19 CNS
SNB-75 CNS = system: SNB-75 CNS
SR leukemia = system: SR leukemia
SW-620 colon = system: SW-620 colon
T-47D breast = system: T-47D breast
TK-10 renal = system: TK-10 renal
U251 CNS = system: U251 CNS
UACC-257 melanoma = system: UACC-257 melanoma
UACC-62 melanoma = system: UACC-62 melanoma

Measured: TGI

CC(O)(/C=C/c1ccccc1)P(=O)(O)c1ccccc1 (stereo not drawn)
> 100 µM: 786-0 renal | A498 renal | A549 NSCLC | ACHN renal | CAKI-1 renal | COLO 205 colon | DU-145 prostate | EKVX NSCLC | HCC-2998 colon | HCT-116 colon | HCT-15 colon | HL-60(TB) leukemia | HOP-62 NSCLC | HOP-92 NSCLC | HS 578T breast | HT29 colon | IGROV1 ovarian | K-562 leukemia | KM12 colon | LOX IMVI melanoma | M14 melanoma | MALME-3M melanoma | MCF7 breast | MDA-MB-435 | MDA-N | NCI-H226 lung | NCI-H23 lung | NCI-H460 lung | NCI-H522 lung | NCI/ADR-RES ovarian | OVCAR-3 ovarian | OVCAR-4 ovarian | OVCAR-5 ovarian | OVCAR-8 ovarian | PC-3 prostate | RXF 393 renal | SF-268 CNS | SF-295 CNS | SF-539 CNS | SK-MEL-2 melanoma | SK-MEL-28 melanoma | SK-MEL-5 melanoma | SK-OV-3 ovarian | SN12C renal | SNB-19 CNS | SNB-75 CNS | SR leukemia | SW-620 colon | T-47D breast | TK-10 renal | U251 CNS | UACC-257 melanoma | UACC-62 melanoma
